# Source: publication PMC4467156, “A new chemical inhibitor of angiogenesis and tumorigenesis that targets the VEGF signaling pathway upstream of Ras” (Oncotarget, 2015)
# Experiments:
# HUVEC cells = test: Scratch assay on HUVEC with or without mitomycin C; format: cell-based, human; settings: HUVEC, 25 μM COB223, mitomycin C 2 μg/mL pretreatment, 24 h and 48 h
# Protocol: Confluent cell monolayers were wounded with a plastic pipet tip, washed gently with phosphate buffer saline (PBS) and treated with complete media containing molecules, as indicated. Cells were placed at 37°C into the incubator and photographed at indicated times. Quantitation of closure of the monolayer was performed using the NIH Image J program (http://rsbweb.nih.gov/ij/). Results are expressed as percentage of wound closure at t = 24 h as compared to the initial wound at t = 0 h. […]
# www.impactjournals.com/oncotarget/ Oncotarget, Supplementary Materials 2015 […]
# Figure S1: Effect of COB223 on endothelial cell migration. (A) Scratch assay: Confluent HUVEC cells were pretreated for 24 h without (CTL) or with 2 μg/mL of mitomycin C before a wound was made in the cell monolayer. After wounding, cells were incubated at 37°C in the absence or the presence of 25 μM COB223. Wound closure was measured after 24 h and 48 h of incubation as described in Material and Methods. […]
# (B) Boyden chamber assay: The technique is described in Material and Methods. We measured the passage of fluorescently labeled HUVEC cells through a 3 μm-porous membrane in response to fetal calf serum used as a chemo-attractant. […] The Figure represents the mean fluorescence ± SD of duplicate determinations after 24 h or 48h of incubation from two independent experiments. […]
# [1] = system: embryoid bodies derived from mouse embryonic stem cells; test: Vascular sprouting of embryoid bodies into collagen gels; format: cell-based; settings: 12.5 μM COB223 added at day 6
# Protocol: CJ7 cells (1000 cells/well; 12-well plates) were allowed to differentiate in collagen gels in Iscove's medium containing Glutamax (Iscove's modified Dulbecco's medium; Invitrogen) supplemented with 1.2 mg/mL collagen I (BD Biosciences, Bedford, MA), 15% fetal calf serum (Invitrogen), 450 μM monothioglycerol (Sigma-Aldrich), 10 μg/mL insulin (Roche Diagnostics, Basel, Switzerland), 50 U/mL penicillin and 50 μg/mL streptomycin (Invitrogen), as previously described. A cocktail of growth factors was also added containing 50 ng/mL human VEGF-A (AbCys) and 100 ng/mL human FGF-2 (a generous gift from Dr. A. Baird, Whittier Institute, La Jolla, CA). At day 6, molecules were added with a novel addition of 50 ng/mL human VEGF-A and 100 ng/mL human FGF-2. Differentiation was allowed during 11 days.
# Collagen gels containing EBs were dehydrated and fixed in 4% paraformaldehyde during 15 min at room temperature. […] For quantitation of endothelial sprouting, images were captured with a digital camera and measurement of the total length of endothelial sprouts was achieved by morphometric analysis using ImageJ software.
# FGFR1 = FGFR1 (Homo sapiens, UniProt P11362); test: In vitro kinase assay FGFR1; format: biochemical; settings: concentrations up to 50 μM
# Protocol: We first wondered whether COB223 required to be internalized to exert its biological effect. For this, we synthesized a covalent complex between BSA and COB223 and purified it. […] In vitro kinase assays were performed with a panel of purified protein-kinases involved in mitogenic signaling, including VEGFR2, FGFR1, FGFR2, PDGFRß, Met, Raf, MEK1, ERK1, ERK2, PKCα, PKCβI, PKCβII, PKCζ as indicated in Table 2. […] We then analyzed the effect of COB223 on VEGF-induced phosphorylations of VEGFR2, MEK and ERK1/2 (Figure 9). […] (Figure 9A, 9B). […] It was also specific of the p42/p44 MAP kinase pathway as activation of p38 MAP kinase phosphorylation in HUVEC cells by VEGF or serum was unaffected by COB223 (data not shown). The activation of src phosphorylation by VEGF in HUVECs was also unaffected by COB223 (data not shown).
# MEK phosphorylation = test: Western blot, MEK phosphorylation in HUVEC; format: cell-based, human; settings: 10 ng/mL VEGF-A 15 min, 25 μM COB223
# Protocol: Figure 9 Effect of COB223 on growth factor-induced VEGF-R2, MEK and ERK phosphorylations (A) Serum-starved HUVEC cells were incubated for 15 min in the presence of either 10 ng/mL VEGF-A or 20 ng/mL FGF-2 and in the absence or the presence of 25 μM COB223. The phosphorylations of VEGFR2 on tyrosine 1175 or tyrosine 1214, of MEK and ERK1/2 were then analyzed by Western blot analysis of the cell lysates as described in Material and Methods. Western blots for total VEGFR2, MEK and ERK1/2 were used as loading controls. The blots shown in Figure 9A were obtained in one representative experiment. (B) The hybridization signals observed in 5 similar but independent experiments were quantitated and the ratios between phospho-VEGFR2(Y1175) or (Y1214) and VEGFR2 signals were normalized to the value observed in the absence of COB223. (C) The hybridization signals observed in 5 similar but independent experiments were quantitated and the ratios between phospho-ERK1/2 and ERK1/2 and between phospho-MEK and MEK were normalized to the values observed in the absence of COB223. Additional experiments performed with 10% fetal calf serum (FCS) as a mitogen were included in this analysis. * : p < 0.05; ** : p < 0.01
# Serum-starved HUVEC cells were incubated for 15 min in the presence of either 10 ng/mL VEGF-A or 20 ng/mL FGF-2 and in the absence or the presence of indicated concentration of COB223. […]
# Sequence of FGFR1 (P11362 22-822, species assumed): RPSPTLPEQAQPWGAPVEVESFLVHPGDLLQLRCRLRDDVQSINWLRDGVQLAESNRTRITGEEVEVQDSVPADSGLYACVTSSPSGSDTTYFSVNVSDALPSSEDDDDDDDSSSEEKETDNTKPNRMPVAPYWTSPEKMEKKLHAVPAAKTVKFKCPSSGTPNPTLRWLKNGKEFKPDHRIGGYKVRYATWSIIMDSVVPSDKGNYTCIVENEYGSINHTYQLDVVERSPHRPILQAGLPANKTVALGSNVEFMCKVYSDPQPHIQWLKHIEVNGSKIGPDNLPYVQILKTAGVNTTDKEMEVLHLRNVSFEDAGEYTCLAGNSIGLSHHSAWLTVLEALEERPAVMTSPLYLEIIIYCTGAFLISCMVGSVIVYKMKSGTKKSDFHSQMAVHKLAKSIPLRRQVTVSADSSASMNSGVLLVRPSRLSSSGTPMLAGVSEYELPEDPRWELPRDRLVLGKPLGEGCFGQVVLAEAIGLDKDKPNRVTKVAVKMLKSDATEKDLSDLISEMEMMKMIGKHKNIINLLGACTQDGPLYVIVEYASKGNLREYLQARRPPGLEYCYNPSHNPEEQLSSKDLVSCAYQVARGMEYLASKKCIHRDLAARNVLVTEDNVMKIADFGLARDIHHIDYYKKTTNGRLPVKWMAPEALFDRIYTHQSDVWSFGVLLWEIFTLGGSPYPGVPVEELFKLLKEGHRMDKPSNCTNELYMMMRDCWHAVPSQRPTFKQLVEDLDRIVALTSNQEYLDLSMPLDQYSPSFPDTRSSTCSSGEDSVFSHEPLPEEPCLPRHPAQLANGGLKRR
smiles,measurement,setting,value
"CN(C)c1cccc2c(S(=O)(=O)NCCCN3CCN(CCCNC(=O)OC(C)(C)C)CC3)cccc12 [COB223, tert-Butyl 3-(4-(3-(5-(dimethylamino)naphthalene-1-sulfonamido)propyl)piperazin-1-yl) propylcarbamate]",endothelial cell wound closure in the presence of mitomycin C,HUVEC cells,still inhibited
same,endothelial sprouting (CD31 immunostaining),[1],complete inhibition
same,kinase inhibition,FGFR1,None of them was inhibited
same,VEGF-induced phosphorylation of MEK,MEK phosphorylation,significantly inhibited
